The values that follow are results of earlier work, collected in US6642243B1, “Migraine medicine and method for treating same” (priority 1999, dated 2003).

For one data set, the system named is cerebral blood flow. Conditions: in humans.
In another data set the test system is migraine patients. The settings on record: pretreatment with 2 mg/kg; p<0.05.
The test system of data set [1] is individuals who take these agents. The settings on record: treatment and prophylaxis of migraines.

Take `Cn1c(=O)c2c(ncn2C)n(C)c1=O` [Caffeine, caffeine]: in the data set with cerebral blood flow, the cerebral blood flow result is “reduce cerebral blood flow”.

For the molecule `CN[C@@H](C)[C@@H](O)c1ccccc1` [Pseudoephedrine, pseudoephedrine], in the data set on migraine patients, the “effects of increased postural hypotension seen in migraine patients versus normal patients” value is “abolished” and the “effects of lower blood pressure after sustained handgrip seen in migraine patients versus normal patients” value is given as “abolished”.

Regarding `C[C@@H](CO)NC(=O)[C@@H]1C=C2c3cccc4[nH]cc(c34)C[C@H]2N(C)C1` [ergonovine], the “significant toxicity, share of the individuals who take these agents” value in data set [1] was approximately 40%.

In the case of `CC[C@@H](CO)NC(=O)[C@@H]1C=C2c3cccc4c3c(cn4C)C[C@H]2N(C)C1` [methysergide], in data set [1], the “significant toxicity, share of the individuals who take these agents” value is approximately 40%.
